# Measurements reported in PMC5390772 (Neuropharmacology, 2017).
# Experiments:
# α7 nACh receptors W53A = molecular target: α7 nACh receptors W53A; parameters: method as in Li et al., 2011; Van Arnam et al., 2013; conditions: W53 substituted by Ala ref Li et al., 2011; Van Arnam et al., 2013; cited from earlier work
# α7 nACh receptors W145F = tested on: α7 nACh receptors W145F; parameters: method as in Li et al., 2011; conditions: W145F ref Li et al., 2011; cited from earlier work
# α7 nACh receptors W53F = tested on: α7 nACh receptors W53F; parameters: method as in Li et al., 2011; Van Arnam et al., 2013; conditions: W53F ref Li et al., 2011; Van Arnam et al., 2013; cited from earlier work
# mouse 5-HT3 receptors [1] = molecular target: T1, mouse 5-HT3 receptors (Mus musculus, UniProt P23979); assay: biochemical; assay type: binding
# T1 construct: expressed in transfected cells; host or cells: HEK293
# Experimental: (§1) Mutagenesis was performed using the QuikChange method (Agilent Technologies Inc., CA, USA) to substitute amino acids throughout each of the binding loops A – F (Fig. 1). The α7 nACh-5-HT3 subunit cDNA was as described by Bertrand ([Eiselé et al., 1993]) and was cloned into pcDNA3.1 for expression in HEK293 cells. Human 5-HT3A cDNA (accession number: P46098) and mouse 5-HT3A cDNA (Q6J1J7) were cloned into the same vector. Cells were transiently transfected with this cDNA using either polyethyleneimine (PEI: 25 kDa, linear, powder, Polysciences Inc., Eppelheim, Germany) or Lipofectamine 2000 (Life Technologies, CA, USA) according to the manufacturer's instructions. 30 μl of PEI (1 mg ml^−1), 5 μg cDNA and 1 ml DMEM/F12 were incubated for 10 min at room temperature, added drop wise to a 90 mm plate of 70–80% confluent HEK293 cells, and incubated for 2–3 days before use.
# (§2) Transfected HEK 293 cells were scraped into 0.6 ml of ice-cold 10 mM HEPES buffer (pH 7.4) and stored frozen. […] Non-specific binding was determined using 300 μM (−)-nicotine. […] Radioactivity was determined by scintillation in Ultima Gold XR (Perkin Elmer) using a Tri-Carb 2100 TR (PerkinElmer) scintillation counter. Final counts were monitored to ensure that binding never exceeded 10% of the added concentrations of radioligands. […]
# T1 sequence (P23979 24-483 isoform P23979-2 limits assumed): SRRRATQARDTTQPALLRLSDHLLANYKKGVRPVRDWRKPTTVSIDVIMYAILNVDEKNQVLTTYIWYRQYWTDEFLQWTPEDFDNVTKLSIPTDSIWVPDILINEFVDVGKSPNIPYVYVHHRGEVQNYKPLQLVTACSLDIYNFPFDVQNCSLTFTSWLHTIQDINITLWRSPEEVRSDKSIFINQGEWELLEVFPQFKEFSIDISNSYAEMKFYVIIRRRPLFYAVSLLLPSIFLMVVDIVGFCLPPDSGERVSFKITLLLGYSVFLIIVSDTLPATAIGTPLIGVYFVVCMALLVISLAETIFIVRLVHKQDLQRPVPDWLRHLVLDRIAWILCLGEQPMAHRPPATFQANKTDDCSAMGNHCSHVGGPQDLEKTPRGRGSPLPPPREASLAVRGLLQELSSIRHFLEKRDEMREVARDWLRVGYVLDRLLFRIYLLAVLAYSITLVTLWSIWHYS
# human 5-HT3 receptors [2] = molecular target: T2, human 5-HT3 receptors (Homo sapiens, UniProt P46098); assay: biochemical; assay type: binding
# T2 construct: expressed in transfected cells; host or cells: HEK293
# Experimental: as §1, §2
# α7 nACh receptors L116A = tested on: α7 nACh receptors L116A; parameters: method as in Blum et al., 2013; Van Arnam et al., 2013; conditions: L116 Ala mutation ref Blum et al., 2013, Van Arnam et al.; cited from earlier work
# α7 nACh receptors Y184F = tested on: α7 nACh receptors Y184F; parameters: method as in Li et al., 2011; conditions: Y184F ref Li et al., 2011; cited from earlier work
# α7 nACh receptors = molecular target: α7 nACh receptors; parameters: method as in Li et al., 2011; Van Arnam et al., 2013; conditions: before W53 substitution ref Li et al., 2011; Van Arnam et al., 2013; cited from earlier work
# α7 nACh receptor Q114C = assay type: binding, chick
# Experimental: as §1
# (§3) Human embryonic kidney (HEK) 293 cells were grown on 90 mm round tissue culture plates as monolayers in DMEM/F12 (Life Technologies) supplemented with 10% fetal bovine serum (FBS; Sigma Aldrich) at 37 °C in a moist atmosphere containing 5% CO2.
# (§4) Transfected HEK 293 cells were scraped into 0.6 ml of ice-cold 10 mM HEPES buffer (pH 7.4) and stored frozen. After thawing, they were washed with HEPES buffer, homogenised by passage through a 21 G needle, and 50 μg of cell suspension incubated in 0.5 ml HEPES buffer containing [^3H]epibatidine (55.8 Ci/mmol, Waltham, MA). Non-specific binding was determined using 300 μM (−)-nicotine. Equilibrium reactions were incubated on ice for at least 1 h. Incubations were terminated by vacuum filtration onto Whatman GF/B filters wetted with 0.3% polyethyleneimine, followed by two rapid washes with 2.5 ml ice cold buffer. Radioactivity was determined by scintillation in Ultima Gold XR (Perkin Elmer) using a Tri-Carb 2100 TR (PerkinElmer) scintillation counter. Final counts were monitored to ensure that binding never exceeded 10% of the added concentrations of radioligands.
# (§5) All data were analysed using GraphPad Prism v5. Individual saturation binding experiments were fitted to Eq. (1):(1) […] where Bmax is maximum binding at equilibrium, Kd is the equilibrium dissociation constant and [L] is the free concentration of radioligand. Values from individual experiments were averaged to yield the mean ± sem. Affinities were compared using 1-way ANOVA and a Dunnett's Post-Test.
# human 5-HT3 receptors [3] = molecular target: T2, human 5-HT3 receptors; assay type: binding; conditions: concentration of up to 25 nM
# Experimental: as §1, §2
# mouse 5-HT3 receptors [4] = molecular target: mouse 5-HT3 receptors (Mus musculus, UniProt P23979); assay type: binding; conditions: concentration of up to 25 nM
# Experimental: as §1, §2
# Target sequence in this assay (P23979 24-246 limits assumed): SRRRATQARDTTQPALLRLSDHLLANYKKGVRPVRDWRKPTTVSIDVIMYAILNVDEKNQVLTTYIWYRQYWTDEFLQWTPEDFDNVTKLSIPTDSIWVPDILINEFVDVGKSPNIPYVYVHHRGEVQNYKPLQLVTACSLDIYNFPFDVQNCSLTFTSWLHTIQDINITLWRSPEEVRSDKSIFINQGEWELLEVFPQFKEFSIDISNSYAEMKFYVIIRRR
# α7 nACh receptor Y191C = molecular target: α7 nACh receptor Y191C; parameters: species or system chick; conditions: no saturable binding
# Experimental: as §1, §3, §4, §5
# α7 nACh receptor N104C = molecular target: α7 nACh receptor N104C; parameters: species or system chick; conditions: no saturable binding
# Experimental: as §1, §3, §4, §5
# α7 nACh receptor Y91C = molecular target: α7 nACh receptor Y91C; parameters: species or system chick; conditions: no saturable binding
# Experimental: as §1, §3, §4, §5
# α7 nACh receptor W53C = molecular target: α7 nACh receptor W53C; parameters: species or system chick; conditions: no saturable binding
# Experimental: as §1, §3, §4, §5
# α7 nACh receptor W145C = molecular target: α7 nACh receptor W145C; parameters: species or system chick; conditions: no saturable binding
# Experimental: as §1, §3, §4, §5
# α7 nACh receptor Y184C = molecular target: α7 nACh receptor Y184C; parameters: species or system chick; conditions: no saturable binding
# Experimental: as §1, §3, §4, §5
# α7 nACh receptor L106C = assay type: binding, chick
# Experimental: as §1, §3, §4, §5
# α7 nACh receptor Q55C = assay type: binding, chick
# Experimental: as §1, §3, §4, §5
# α7 nACh receptor C186A = assay type: binding, chick
# Experimental: as §1, §3, §4, §5
# α7 nACh receptor C187A = assay type: binding, chick
# Experimental: as §1, §3, §4, §5
# [5] = molecular target: T3, wild type α7 nACh receptors (UniProt P22770+P23979); assay type: binding, chick
# T3 construct: directed against the 5-HT3 region of the chimaeric receptor; expressed in transfected cells; host or cells: HEK293
# Experimental: as §1, §3, §4, §5
# [6] = molecular target: T4, wild type α7 nACh receptors (UniProt P22770+P23979, M226I/T225I); assay type: binding, chick; conditions: α7 nACh-5-HT3 chimaera in HEK 293 cells
# T4 construct: directed against the 5-HT3 region of the chimaeric receptor; expressed in transfected cells; host or cells: HEK293
# Experimental: as §1, §3, §4, §5
# α7 nACh receptor D160C = assay type: binding, chick
# Experimental: as §1, §3, §4, §5
# α7 nACh receptor T146C = assay type: binding, chick
# Experimental: as §1, §3, §4, §5
# α7 nACh receptor S162C = assay type: binding, chick
# Experimental: as §1, §3, §4, §5
# α7 nACh receptor L116C = assay type: binding, chick
# Experimental: as §1, §3, §4, §5
# α7 nACh receptor S144C = assay type: binding, chick
# Experimental: as §1, §3, §4, §5
# T2 sequence (P46098 24-478): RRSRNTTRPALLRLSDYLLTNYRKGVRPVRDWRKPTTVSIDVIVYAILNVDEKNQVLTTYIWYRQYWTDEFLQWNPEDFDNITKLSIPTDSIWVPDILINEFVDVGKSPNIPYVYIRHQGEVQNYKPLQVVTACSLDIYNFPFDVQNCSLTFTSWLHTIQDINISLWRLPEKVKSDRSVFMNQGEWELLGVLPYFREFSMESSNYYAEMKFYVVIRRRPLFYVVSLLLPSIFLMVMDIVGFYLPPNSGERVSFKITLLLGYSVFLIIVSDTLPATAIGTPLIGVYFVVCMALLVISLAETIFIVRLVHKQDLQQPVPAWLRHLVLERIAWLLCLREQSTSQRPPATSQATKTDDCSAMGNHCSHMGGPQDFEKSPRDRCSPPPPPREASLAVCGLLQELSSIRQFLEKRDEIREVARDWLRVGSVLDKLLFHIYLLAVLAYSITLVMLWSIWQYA
# T3 sequence (P22770+P23979 fused P22770:T225I/P22770:M226I): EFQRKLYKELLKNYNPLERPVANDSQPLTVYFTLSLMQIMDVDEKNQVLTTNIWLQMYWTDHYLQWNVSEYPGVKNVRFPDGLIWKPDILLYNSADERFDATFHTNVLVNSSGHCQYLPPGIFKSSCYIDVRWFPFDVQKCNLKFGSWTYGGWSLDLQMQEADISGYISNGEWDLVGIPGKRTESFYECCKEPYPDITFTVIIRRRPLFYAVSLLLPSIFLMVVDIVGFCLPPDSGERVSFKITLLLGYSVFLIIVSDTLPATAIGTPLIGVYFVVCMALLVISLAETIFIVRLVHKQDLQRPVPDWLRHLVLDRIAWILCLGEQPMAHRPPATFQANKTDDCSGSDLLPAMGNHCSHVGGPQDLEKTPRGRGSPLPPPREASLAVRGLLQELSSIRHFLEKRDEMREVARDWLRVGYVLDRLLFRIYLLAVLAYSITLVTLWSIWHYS
# T4 sequence (P22770+P23979 fused P22770:T225I/P22770:M226I): as above
smiles,measurement,setting,value
Clc1ccc(C2CC3CCC2N3)cn1 (stereo not drawn) [epibatidine],EC50,α7 nACh receptors W53A,5800 nM
same,reduction of affinity by mutation,α7 nACh receptors W145F,> 2200 fold
same,affinity change by mutation,α7 nACh receptors W53F,4 fold
same,Ki,mouse 5-HT3 receptors [1],12300 nM
same,Ki,human 5-HT3 receptors [2],2510 nM
same,change in the EC50 by mutation,α7 nACh receptors L116A,9 fold
same,change of affinity by mutation,α7 nACh receptors Y184F,> 250 fold
same,EC50,α7 nACh receptors,340 nM
same,increase in affinity relative to wild type,α7 nACh receptor Q114C,5 fold
Clc1ccc(C2CC3CCC2N3)cn1 (stereo not drawn) [[^3H]epibatidine],saturable binding,human 5-HT3 receptors [3],not detected
same,saturable binding,mouse 5-HT3 receptors [4],not detected
same,Kd,α7 nACh receptor Y191C,> 20 nM
same,Kd,α7 nACh receptor N104C,> 20 nM
same,Kd,α7 nACh receptor Y91C,> 20 nM
same,Kd,α7 nACh receptor W53C,> 20 nM
same,Kd,α7 nACh receptor W145C,> 20 nM
same,Kd,α7 nACh receptor Y184C,> 20 nM
same,Kd,α7 nACh receptor L106C,8.3 nM
same,pKd Mean ± SEM,"α7 nACh receptor L106C; loop E, HEK 293 cells",8.08 ± 0.12
same,Kd,α7 nACh receptor Q55C,6.9 nM
same,pKd Mean ± SEM,"α7 nACh receptor Q55C; loop D, HEK 293 cells",8.16 ± 0.09
same,Kd,α7 nACh receptor C186A,33 nM
same,pKd Mean ± SEM,"α7 nACh receptor C186A; loop C, HEK 293 cells",7.48 ± 0.10
same,Kd,α7 nACh receptor C187A,60 nM
same,pKd Mean ± SEM,"α7 nACh receptor C187A; loop C, HEK 293 cells",7.22 ± 0.07
same,Kd,[5],8 nM
same,pKd Mean ± SEM,[6],8.09 ± 0.06
same,Kd,α7 nACh receptor D160C,8.7 nM
same,pKd Mean ± SEM,"α7 nACh receptor D160C; loop F, HEK 293 cells",8.06 ± 0.10
same,Kd,α7 nACh receptor T146C,9.8 nM
same,pKd Mean ± SEM,"α7 nACh receptor T146C; loop B, HEK 293 cells",8.01 ± 0.07
same,Kd,α7 nACh receptor S162C,7.2 nM
same,pKd Mean ± SEM,"α7 nACh receptor S162C; loop F, HEK 293 cells",8.14 ± 0.09
same,Kd,α7 nACh receptor L116C,5.1 nM
same,pKd Mean ± SEM,"α7 nACh receptor L116C; loop E, HEK 293 cells",8.29 ± 0.05
same,Kd,α7 nACh receptor Q114C,1.5 nM
same,pKd Mean ± SEM,"α7 nACh receptor Q114C; loop E, HEK 293 cells",8.82 ± 0.09
same,Kd,α7 nACh receptor S144C,2.3 nM
same,pKd Mean ± SEM,"α7 nACh receptor S144C; loop B, HEK 293 cells",8.64 ± 0.12
